{"source": "ChEMBL document CHEMBL1201862", "about": "“PubChem BioAssay data set” (2004)", "key": {"[1]": {"experiment": "Shn3 3'UTR reporter inhibitors, dose response, cell-based, Clone20 osteoblasts, firefly luciferase, cherry-picked (AID 624132)", "assay_type": "functional"}, "[2]": {"experiment": "HEK293T cytotoxicity, dose response, cytotoxicity control for miR-122 modulator project, cell-based, activator set, cherry-pick (AID 720690);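 note: HEK293T human cells scored for general mammalian cytotoxicity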", "assay_type": "functional"}, "[3]": {"experiment": "HEK293T cytotoxicity, dose response, cytotoxicity control for miR-122 modulator project, cell-based, inhibitor set, cherry-pick, set 2 (AID 720697)", "assay_type": "functional"}, "[4]": {"tested_on": "Jurkat", "experiment": "antigen receptor-induced NF-kB inhibitors, dose response, Jurkat, luciferase reporter, luminescence, B- and T-cell (AID 489004);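 note: NF-kB luciferase reporter Jurkat cells stimulated with PMA plus ionomycin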", "assay_type": "functional, cell-based", "settings": "Homo sapiens"}, "[5]": {"experiment": "inhibitors of clade B AD8 Env fusion, dose response, cell-based, cherry-pick (AID 652062);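 note: potency is for inhibitors of fusion seen as a drop in luminescence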", "assay_type": "functional"}, "[6]": {"experiment": "microbe, parasite or virus in culture", "assay_type": "functional", "settings": "Mycobacterium tuberculosis"}, "[7]": {"experiment": "HepG2 cell cytotoxicity, dose response, cytotoxicity control for Shn3 inhibitor project, CellTiter-Glo, cherry-picked (AID 624134)", "assay_type": "functional, cell-based"}, "[8]": {"tested_on": "INS1", "experiment": "beta cell apoptosis inhibitors, cytokine rescue, dose response, luminescence, retest (AID 449756);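 note: cell death triggered by IL-1 beta plus TNF-alpha plus IFN-gamma mixture; protective hits raise ATP signal compared with cytokine alone wells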", "assay_type": "functional, cell-based", "settings": "Rattus norvegicus"}, "[9]": {"target": "Protein Wnt-3a (Mus musculus, UniProt P27467)", "experiment": "Wnt3a-driven reporter signaling inhibition, dose response, selectivity assay for Gli-SUFU antagonist project, Wnt-LIGHT cells, luminescence (AID 651570);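 note: Wnt-LIGHT reporter cells stimulated with conditioned medium from Wnt3a-producing cells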", "assay_type": "functional", "settings": "read-out: IC50_Mean"}, "[10]": {"experiment": "control 3'UTR Renilla luciferase suppression, dose response, counter-screen for Shn3 inhibitor project, cell-based, Clone20-Shn3RL, cherry-picked (AID 624133)", "assay_type": "functional"}, "[11]": {"target": "T1, COUP transcription factor 2 (Homo sapiens, UniProt P24468)", "T1 sequence (P24468 whole entry)": "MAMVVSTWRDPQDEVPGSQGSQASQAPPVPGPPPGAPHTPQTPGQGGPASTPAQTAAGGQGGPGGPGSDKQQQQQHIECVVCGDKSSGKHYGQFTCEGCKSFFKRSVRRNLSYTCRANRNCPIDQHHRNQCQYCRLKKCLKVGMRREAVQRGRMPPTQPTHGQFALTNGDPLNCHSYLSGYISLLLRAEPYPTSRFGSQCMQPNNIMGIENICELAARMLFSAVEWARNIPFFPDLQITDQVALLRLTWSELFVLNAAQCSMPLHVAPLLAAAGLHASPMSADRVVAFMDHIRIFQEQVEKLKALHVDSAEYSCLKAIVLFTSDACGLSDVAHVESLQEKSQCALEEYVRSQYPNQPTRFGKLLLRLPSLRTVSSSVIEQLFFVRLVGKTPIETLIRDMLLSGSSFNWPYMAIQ", "experiment": "Luminescence-based cell-based high throughput dose response assay to identify inhibitors of COUP-TFII (NR2F2).", "assay_type": "functional"}, "[12]": {"experiment": "cytotoxicity in HEK-293T NF-kB-Luc cells, dose response, cytotoxicity control for B/T-cell NF-kB inhibitor project, cell-based, uHTS hits (AID 489019);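 note: IC50 reflects cytotoxicity as loss of cell viability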", "assay_type": "functional"}, "[13]": {"target": "Adenosylmethionine-8-amino-7-oxononanoate aminotransferase (Mycobacterium tuberculosis, UniProt P9WQ81)", "sequence (P9WQ81 whole entry)": "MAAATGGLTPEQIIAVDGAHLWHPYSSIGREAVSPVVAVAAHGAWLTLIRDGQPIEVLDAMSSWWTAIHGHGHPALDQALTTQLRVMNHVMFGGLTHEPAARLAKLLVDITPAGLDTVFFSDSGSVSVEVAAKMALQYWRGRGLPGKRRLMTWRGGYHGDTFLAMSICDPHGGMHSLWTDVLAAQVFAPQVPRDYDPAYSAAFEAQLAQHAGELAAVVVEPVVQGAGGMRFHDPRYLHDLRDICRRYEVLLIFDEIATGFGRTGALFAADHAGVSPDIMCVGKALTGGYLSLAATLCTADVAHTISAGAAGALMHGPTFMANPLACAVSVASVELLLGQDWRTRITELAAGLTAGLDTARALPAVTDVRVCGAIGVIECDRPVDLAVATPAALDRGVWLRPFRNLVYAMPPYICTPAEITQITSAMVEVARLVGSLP", "experiment": "Mycobacterium tuberculosis BioA enzyme inhibitor Measured in Biochemical System Using Plate Reader - 2163-02_Inhibitor_Dose_CherryPick_Activity.", "assay_type": "functional, Mycobacterium tuberculosis UT205"}, "[14]": {"experiment": "CAL PDZ domain peptide-binding inhibitors, dose response, biochemical, fluorescence polarization, untagged CAL PDZ, cherry-pick, set 2 (AID 602254)", "assay_type": "functional"}, "[15]": {"target": "T2, ATP-dependent translocase ABCB1 (Homo sapiens, UniProt P08183)", "T2 sequence (P08183 whole entry)": "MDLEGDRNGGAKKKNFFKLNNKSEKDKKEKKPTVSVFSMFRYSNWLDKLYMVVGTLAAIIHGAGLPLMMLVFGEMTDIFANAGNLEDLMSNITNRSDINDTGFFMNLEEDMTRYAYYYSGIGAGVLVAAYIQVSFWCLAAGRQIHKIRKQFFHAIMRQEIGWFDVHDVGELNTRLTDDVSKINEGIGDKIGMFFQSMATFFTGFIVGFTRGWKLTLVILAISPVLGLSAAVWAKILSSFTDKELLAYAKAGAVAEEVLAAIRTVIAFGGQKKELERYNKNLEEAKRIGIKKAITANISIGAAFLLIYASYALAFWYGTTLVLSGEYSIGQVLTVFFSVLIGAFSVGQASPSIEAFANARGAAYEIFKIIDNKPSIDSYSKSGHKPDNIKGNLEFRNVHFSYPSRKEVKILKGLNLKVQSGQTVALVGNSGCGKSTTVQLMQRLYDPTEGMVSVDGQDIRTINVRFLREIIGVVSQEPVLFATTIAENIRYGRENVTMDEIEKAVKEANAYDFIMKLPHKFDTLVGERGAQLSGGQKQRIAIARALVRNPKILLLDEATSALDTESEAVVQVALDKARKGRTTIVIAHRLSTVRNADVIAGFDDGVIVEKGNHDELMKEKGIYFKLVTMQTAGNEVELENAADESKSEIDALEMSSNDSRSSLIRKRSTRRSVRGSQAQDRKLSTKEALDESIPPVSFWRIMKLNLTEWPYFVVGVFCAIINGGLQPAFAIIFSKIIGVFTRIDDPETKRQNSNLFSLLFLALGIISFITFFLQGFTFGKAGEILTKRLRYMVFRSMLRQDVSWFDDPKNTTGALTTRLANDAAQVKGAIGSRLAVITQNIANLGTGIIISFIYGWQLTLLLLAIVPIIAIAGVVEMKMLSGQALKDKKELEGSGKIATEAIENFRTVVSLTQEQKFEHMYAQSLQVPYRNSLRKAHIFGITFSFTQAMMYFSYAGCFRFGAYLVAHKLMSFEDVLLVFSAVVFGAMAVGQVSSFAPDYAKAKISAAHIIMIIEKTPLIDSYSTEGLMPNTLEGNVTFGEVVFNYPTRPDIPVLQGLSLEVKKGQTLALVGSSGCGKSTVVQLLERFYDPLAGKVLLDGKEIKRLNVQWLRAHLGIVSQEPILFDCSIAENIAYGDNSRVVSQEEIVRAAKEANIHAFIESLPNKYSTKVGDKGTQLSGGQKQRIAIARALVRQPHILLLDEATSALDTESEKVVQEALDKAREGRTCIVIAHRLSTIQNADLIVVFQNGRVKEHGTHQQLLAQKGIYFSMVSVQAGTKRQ", "experiment": "ABCG2 efflux pump inhibitor potency, dose response, Ig-MXP3 cells, JC-1, flow cytometry, set 2 (AID 504566);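 note: flow cytometry median green fluorescence of retained JC-1 dye; potency of efflux pump inhibition measured as rising substrate retention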", "assay_type": "functional", "settings": "read-out: EC50_MICROM_"}, "[16]": {"target": "T2, ATP-dependent translocase ABCB1", "experiment": "ABCB1 efflux inhibitor potency, dose response, Jurkat-DNR cells, JC-1, flow cytometry, set 2 (AID 504569);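 note: potency of pump inhibitors that raise cellular JC-1 green fluorescence up to the nicardipine level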", "assay_type": "functional", "settings": "read-out: EC50_MICROM_"}, "[17]": {"target": "T3, Voltage-gated N-type calcium channel alpha-1B subunit/Amyloid beta A4 precursor protein-binding family A member 1 (Homo sapiens, UniProt Q00975+Q02410)", "T3 sequence (Q00975 whole entry)": "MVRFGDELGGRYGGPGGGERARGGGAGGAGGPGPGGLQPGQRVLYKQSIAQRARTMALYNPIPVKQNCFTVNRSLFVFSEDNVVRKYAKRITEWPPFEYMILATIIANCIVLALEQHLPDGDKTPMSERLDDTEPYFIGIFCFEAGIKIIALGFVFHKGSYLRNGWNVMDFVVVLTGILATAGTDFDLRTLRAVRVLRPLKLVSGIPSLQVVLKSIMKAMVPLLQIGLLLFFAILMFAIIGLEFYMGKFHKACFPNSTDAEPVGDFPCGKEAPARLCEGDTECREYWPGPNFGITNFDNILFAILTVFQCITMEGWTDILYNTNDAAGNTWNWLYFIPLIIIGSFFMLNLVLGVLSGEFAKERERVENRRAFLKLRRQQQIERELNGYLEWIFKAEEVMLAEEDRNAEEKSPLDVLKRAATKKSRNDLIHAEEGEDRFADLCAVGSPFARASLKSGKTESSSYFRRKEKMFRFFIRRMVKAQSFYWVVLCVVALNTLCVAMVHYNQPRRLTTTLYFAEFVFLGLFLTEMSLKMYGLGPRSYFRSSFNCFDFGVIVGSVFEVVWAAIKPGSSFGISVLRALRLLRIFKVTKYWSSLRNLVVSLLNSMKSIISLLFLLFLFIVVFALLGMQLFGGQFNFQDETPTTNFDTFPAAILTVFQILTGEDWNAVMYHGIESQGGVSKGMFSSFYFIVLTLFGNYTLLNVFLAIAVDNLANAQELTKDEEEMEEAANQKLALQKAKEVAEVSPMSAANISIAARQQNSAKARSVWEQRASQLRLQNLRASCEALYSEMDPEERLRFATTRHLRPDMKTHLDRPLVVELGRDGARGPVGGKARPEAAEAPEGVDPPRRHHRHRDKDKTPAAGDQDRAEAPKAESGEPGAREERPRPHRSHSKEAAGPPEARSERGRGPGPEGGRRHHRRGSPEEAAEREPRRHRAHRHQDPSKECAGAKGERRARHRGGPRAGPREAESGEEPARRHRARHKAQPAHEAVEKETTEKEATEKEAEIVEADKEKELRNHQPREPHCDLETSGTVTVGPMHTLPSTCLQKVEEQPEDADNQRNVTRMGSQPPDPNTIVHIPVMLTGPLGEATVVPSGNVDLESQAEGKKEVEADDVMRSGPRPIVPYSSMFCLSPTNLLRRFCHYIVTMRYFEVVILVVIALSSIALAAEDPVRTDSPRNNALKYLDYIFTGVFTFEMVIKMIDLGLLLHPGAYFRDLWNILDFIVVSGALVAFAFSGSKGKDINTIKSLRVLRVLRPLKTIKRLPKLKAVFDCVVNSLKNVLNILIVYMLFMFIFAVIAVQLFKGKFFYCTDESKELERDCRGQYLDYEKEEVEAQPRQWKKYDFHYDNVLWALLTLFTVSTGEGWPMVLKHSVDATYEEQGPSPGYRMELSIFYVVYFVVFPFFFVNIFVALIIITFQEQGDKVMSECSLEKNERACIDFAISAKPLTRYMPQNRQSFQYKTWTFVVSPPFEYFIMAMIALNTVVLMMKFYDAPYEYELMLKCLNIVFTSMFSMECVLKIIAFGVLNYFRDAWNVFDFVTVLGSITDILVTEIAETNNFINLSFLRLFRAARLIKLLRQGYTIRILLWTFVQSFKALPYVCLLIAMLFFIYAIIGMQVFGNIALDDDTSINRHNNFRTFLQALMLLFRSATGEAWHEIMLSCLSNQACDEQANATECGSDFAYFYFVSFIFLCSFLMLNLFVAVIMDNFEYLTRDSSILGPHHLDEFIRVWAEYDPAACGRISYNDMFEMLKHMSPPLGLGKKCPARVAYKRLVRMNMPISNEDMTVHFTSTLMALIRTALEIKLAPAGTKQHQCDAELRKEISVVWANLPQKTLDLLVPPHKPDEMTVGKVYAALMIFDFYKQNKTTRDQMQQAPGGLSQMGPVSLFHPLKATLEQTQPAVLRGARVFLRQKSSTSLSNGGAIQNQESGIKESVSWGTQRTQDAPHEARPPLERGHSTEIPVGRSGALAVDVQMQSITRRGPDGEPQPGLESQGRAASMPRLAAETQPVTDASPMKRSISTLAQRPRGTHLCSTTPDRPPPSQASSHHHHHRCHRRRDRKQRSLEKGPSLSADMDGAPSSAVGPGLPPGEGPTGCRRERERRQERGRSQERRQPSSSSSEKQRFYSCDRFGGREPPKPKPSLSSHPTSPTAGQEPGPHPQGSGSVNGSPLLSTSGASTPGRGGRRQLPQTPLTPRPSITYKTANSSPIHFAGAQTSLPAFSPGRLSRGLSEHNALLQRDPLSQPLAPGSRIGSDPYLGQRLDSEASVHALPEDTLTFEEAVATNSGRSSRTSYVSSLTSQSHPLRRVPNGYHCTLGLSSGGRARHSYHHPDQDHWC", "T3 sequence (Q02410 whole entry)": "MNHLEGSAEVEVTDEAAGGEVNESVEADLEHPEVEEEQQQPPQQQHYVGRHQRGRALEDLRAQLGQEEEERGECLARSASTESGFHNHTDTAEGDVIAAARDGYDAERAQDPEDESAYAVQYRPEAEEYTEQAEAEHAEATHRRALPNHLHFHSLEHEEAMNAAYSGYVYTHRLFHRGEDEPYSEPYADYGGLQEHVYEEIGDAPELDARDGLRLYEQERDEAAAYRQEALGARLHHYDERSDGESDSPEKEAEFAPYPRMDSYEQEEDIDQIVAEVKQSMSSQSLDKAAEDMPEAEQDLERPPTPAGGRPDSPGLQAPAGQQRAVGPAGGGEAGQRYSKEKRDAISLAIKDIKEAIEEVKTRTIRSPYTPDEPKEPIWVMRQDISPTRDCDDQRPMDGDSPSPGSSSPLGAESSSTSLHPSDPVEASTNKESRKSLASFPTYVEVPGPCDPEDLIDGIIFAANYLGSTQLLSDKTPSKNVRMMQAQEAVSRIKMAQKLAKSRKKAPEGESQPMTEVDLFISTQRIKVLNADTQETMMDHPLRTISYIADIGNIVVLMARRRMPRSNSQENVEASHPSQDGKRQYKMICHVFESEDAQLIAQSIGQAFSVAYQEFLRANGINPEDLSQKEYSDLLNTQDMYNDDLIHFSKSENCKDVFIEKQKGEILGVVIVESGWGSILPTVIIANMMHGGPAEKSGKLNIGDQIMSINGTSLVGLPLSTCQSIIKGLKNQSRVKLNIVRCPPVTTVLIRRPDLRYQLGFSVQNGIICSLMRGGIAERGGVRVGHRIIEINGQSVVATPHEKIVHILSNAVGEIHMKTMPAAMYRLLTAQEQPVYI", "assay_type": "protein assay"}, "[18]": {"target": "T4, Low molecular weight phosphotyrosine protein phosphatase (Homo sapiens, UniProt P24666)", "T4 sequence (P24666 whole entry)": "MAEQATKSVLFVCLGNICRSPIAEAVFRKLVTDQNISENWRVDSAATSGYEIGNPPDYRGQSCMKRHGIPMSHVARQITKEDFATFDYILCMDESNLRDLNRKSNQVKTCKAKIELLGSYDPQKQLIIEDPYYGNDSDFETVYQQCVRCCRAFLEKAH", "assay_type": "functional", "settings": "read-out: IC50_Mean"}, "[19]": {"target": "T3, Voltage-gated N-type calcium channel alpha-1B subunit/Amyloid beta A4 precursor protein-binding family A member 1", "assay_type": "protein assay", "remark": "listed apart in the source"}, "[20]": {"target": "T5, Carboxy-terminal domain RNA polymerase II polypeptide A small phosphatase 1 (Homo sapiens, UniProt Q9GZU7)", "T5 sequence (Q9GZU7 whole entry)": "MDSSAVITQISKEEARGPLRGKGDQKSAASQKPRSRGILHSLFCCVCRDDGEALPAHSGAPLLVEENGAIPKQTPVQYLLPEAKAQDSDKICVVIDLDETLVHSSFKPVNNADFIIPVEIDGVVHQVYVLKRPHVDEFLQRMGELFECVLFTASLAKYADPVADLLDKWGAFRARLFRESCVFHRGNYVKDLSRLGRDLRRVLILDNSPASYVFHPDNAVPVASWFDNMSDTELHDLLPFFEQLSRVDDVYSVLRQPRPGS", "experiment": "inhibitors of CTDSP1, concentration-response testing, biochemical assay, absorbance-based, actives from ultra-high-throughput screening (AID 540297)", "assay_type": "functional"}, "[21]": {"target": "T6, Tyrosine-protein phosphatase non-receptor type 22 (Homo sapiens, UniProt Q9Y2R2)", "T6 sequence (Q9Y2R2 whole entry)": "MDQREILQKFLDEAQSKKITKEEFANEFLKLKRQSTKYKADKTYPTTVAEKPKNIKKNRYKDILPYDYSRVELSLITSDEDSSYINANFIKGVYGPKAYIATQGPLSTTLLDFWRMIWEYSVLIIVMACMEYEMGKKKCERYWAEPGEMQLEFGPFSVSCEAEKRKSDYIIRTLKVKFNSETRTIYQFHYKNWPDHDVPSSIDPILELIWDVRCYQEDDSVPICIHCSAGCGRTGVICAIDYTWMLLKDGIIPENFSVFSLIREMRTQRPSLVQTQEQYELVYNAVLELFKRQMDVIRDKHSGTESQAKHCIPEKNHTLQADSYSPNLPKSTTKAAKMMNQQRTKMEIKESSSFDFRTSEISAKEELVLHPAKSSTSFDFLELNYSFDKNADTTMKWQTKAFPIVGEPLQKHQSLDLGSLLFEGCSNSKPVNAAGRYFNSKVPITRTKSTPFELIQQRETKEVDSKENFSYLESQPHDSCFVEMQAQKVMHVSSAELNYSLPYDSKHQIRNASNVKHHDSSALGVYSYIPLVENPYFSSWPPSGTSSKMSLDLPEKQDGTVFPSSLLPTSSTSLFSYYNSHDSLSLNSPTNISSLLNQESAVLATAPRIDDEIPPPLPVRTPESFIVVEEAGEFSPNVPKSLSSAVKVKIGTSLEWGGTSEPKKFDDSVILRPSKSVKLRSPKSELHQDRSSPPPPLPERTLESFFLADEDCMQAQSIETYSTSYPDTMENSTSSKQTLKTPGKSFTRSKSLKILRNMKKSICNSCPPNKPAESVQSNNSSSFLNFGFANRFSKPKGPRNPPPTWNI", "experiment": "LYP phosphatase inhibition for selectivity, dose response, selectivity assay for LMPTP inhibitor project, biochemical, fluorescence, LYP catalytic domain (AID 652006)", "assay_type": "functional", "settings": "read-out: IC50_Mean"}, "[22]": {"target": "Interleukin-8 (Homo sapiens, UniProt P10145)", "sequence (P10145 whole entry)": "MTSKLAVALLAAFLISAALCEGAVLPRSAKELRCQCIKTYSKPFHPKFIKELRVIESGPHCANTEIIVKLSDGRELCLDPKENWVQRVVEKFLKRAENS", "experiment": "Dose Response confirmation of uHTS small molecule hits for cystic fibrosis induced NFkb Inhibitors in a PAF-induced IL8 counterscreen.", "assay_type": "functional", "settings": "read-out: IC50_Mean"}, "[23]": {"experiment": "HEp-2 cell cytotoxicity, dose response, cytotoxicity control for RSV inhibitor project, HTS (AID 2410)", "assay_type": "functional", "settings": "human respiratory syncytial virus"}}, "note": "The source made the active and inactive calls."}
{"smiles": "Cc1ccc(OCCN2CCN(c3ncnc4sc(C)c(C)c34)CC2)cc1", "values": [{"measurement": "AC50", "setting": "[1]", "result": "0.754 µM (active)"}, {"measurement": "AC50", "setting": "[2]", "result": "33.6 µM (active)"}, {"measurement": "AC50", "setting": "[3]", "result": "13.6 µM (active)"}, {"measurement": "IC50", "setting": "[4]", "result": "> 80 µM (inactive)"}, {"measurement": "AC50", "setting": "[5]", "result": "1.78 µM (active)"}, {"measurement": "CC50", "setting": "[6]", "result": "> 40 µM (active)"}, {"measurement": "AC50", "setting": "[7]", "result": "1.5 µM (active)"}, {"measurement": "AC50", "setting": "[8]", "result": "2.36 µM (active)"}, {"measurement": "IC50", "setting": "[9]", "result": "0.282 µM (active)"}, {"measurement": "AC50", "setting": "[10]", "result": "2.05 µM (active)"}, {"measurement": "IC50", "setting": "[11]", "result": "4.98 µM (active)"}, {"measurement": "IC50", "setting": "[12]", "result": "> 80 µM (inactive)"}]}
{"smiles": "Cc1cccc(C2c3[nH]c4ccccc4c3CCN2C(=O)CN2CCOC2=O)n1", "note": "(stereo not drawn)", "values": [{"measurement": "AC50", "setting": "[13]", "result": "7.05 µM (active)"}]}
{"smiles": "CC(C)(C)c1ccc(/C=N/N2CCN(c3ccccn3)CC2)cc1", "values": [{"measurement": "AC50", "setting": "[14]", "result": "91.5 µM (active)"}]}
{"smiles": "COc1ccccc1C(=O)N1CCN(c2cc(-c3ccccc3)nc3cc(-c4cccc(Cl)c4)nn23)CC1", "values": [{"measurement": "EC50", "setting": "[15]", "result": "2.97 µM (active)"}, {"measurement": "EC50", "setting": "[16]", "result": "4.13 µM (active)"}]}
{"smiles": "NS(=O)(=O)c1ccc(CNC(=O)Cc2cccs2)cc1", "values": [{"measurement": "IC50", "setting": "[17]", "result": "3.86 µM (active)"}, {"measurement": "IC50", "setting": "[18]", "result": "20.7 µM (inactive)"}, {"measurement": "IC50", "setting": "[19]", "result": "> 50 µM (inactive)"}, {"measurement": "IC50", "setting": "[20]", "result": "4.18 µM (active)"}, {"measurement": "IC50", "setting": "[21]", "result": "56.1 µM (inactive)"}]}
{"smiles": "CC(C)C[C@H](CO)Nc1nc(Nc2cccc(Cl)c2)c2ncn(C(C)C)c2n1", "values": [{"measurement": "IC50", "setting": "[22]", "result": "5.97 µM (active)"}, {"measurement": "CC50", "setting": "[23]", "result": "44.4 µM (active)"}]}
